Test results reported in PMC8951032, “Study of Biological Activities and ADMET-Related Properties of Novel Chlorinated N-arylcinnamamides” (International Journal of Molecular Sciences, 2022).
≈ marks a conversion by molar mass, not a printed value. Where two headings read alike, the source gives them in different places.

What was measured:
[1] = test system: Mycobacterium smegmatis ATCC 700084; assay: In vitro antimycobacterial activity, broth dilution MIC; assay type: cell-based; conditions: Mycolicibacterium smegmatis
[2] = test system: vancomycin-resistant E. faecalis (VRE) 725B; assay: In vitro antienterococcal activity, microtitration broth MIC; assay type: cell-based, Enterococcus faecalis; conditions: 24 h
[3] = test system: methicillin-resistant S. aureus SA 3202; assay: In vitro antistaphylococcal activity, microtitration broth MIC; assay type: cell-based; conditions: Staphylococcus aureus
[4] = test system: methicillin-resistant S. aureus SA 630; assay: as above; assay type: cell-based; conditions: Staphylococcus aureus
[5] = test system: vancomycin-resistant E. faecalis (VRE) 342B; assay: In vitro antienterococcal activity, microtitration broth MIC; assay type: cell-based, Enterococcus faecalis; conditions: 24 h
[6] = test system: Staphylococcus aureus ATCC 29213; assay: In vitro antistaphylococcal activity, microtitration broth MIC; assay type: cell-based; conditions: for MIC: Staphylococcus aureus
[7] = test system: methicillin-resistant S. aureus (MRSA) 63718; assay: as above; assay type: cell-based; conditions: Staphylococcus aureus
[8] = test system: porcine monocyte-derived macrophages (MDM); assay: In vitro cell viability, CCK-8; assay type: cell-based; conditions: Sus scrofa, Macrophage, 10% fetal bovine serum
Experimental: The effect of the compounds on viability of eukaryotic cells was evaluated on human leukemia cell line THP-1, human synovial cell line SW982, and isolated primary porcine monocytes-delivered macrophages (MDM). The general cytotoxic effect was studied on THP-1 cells in the serum-free medium (only THP-1 as the only cells used in this study are able to survive in serum-free medium). Most of the compounds had no cytotoxic effect on THP-1 cells. […] This could be caused by the direct interaction of such compounds with serum proteins or by the effect of mitogens, cytokines, and hormones present in the serum. Obviously, the full medium is closer to physiological conditions in living organisms, so it can be assumed that these compounds could be non-toxic there.
Porcine monocyte-derived macrophages (MDMs) were prepared, as described previously. Briefly, blood was collected from three-month-old pigs and peripheral blood mononuclear cells (PBMC) were isolated by gradient centrifugation (830× g, 40 min) using Histopaque-1077 (Sigma). CD14+ cells were isolated by positive magnetic bead selection with LS separation columns (Miltenyi Biotec, Bergisch Gladbach, Germany). Isolated monocytes were cultured in 96-well plates at a concentration of 1 × 10^5 cells per well in 0.2 mL of DMEM supplemented with 10% FBS and 1% antibiotics (Antibiotic Antimycotic Solution 100 × 10,000 units penicillin, 10 mg streptomycin, and 25 μg amphotericin B per mL; Sigma) and incubated for five days at 37 °C in 5% CO2 to differentiate into macrophages. Then, MDMs were cultured for 24 h with tested substances and the relative cell viability was determined by CCK-8 kit (Sigma) following manufacturer instructions.

[9] = Lipophilicity determination by RP-HPLC (log k, log D); assay type: physicochemical; conditions: for log k: MeOH 72%/H2O 28%; for log D6.5: MeOH 72%/acetate buffered saline pH 6.5; for log D7.4: MeOH 72%/acetate buffered saline pH 7.4
Outline: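 Isocratic RP-HPLC on C18 column, 40 °C, 1.0 mL/min, UV 210 nm, dead time from KI. log k from MeOH/water 72:28; log D at pH 7.4 and 6.5 from MeOH/acetate buffered saline 72:28. k and D = (tR − tD)/tD; triplicate runs.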

[10] = test system: vancomycin-resistant E. faecalis (VRE) 368; assay: In vitro antienterococcal activity, microtitration broth MIC; assay type: cell-based, Enterococcus faecalis
[11] = test system: Enterococcus faecalis ATCC 29212; assay: as above; assay type: cell-based
[12] = ATCC700084, 72 h, M. smegmatis ATCC 700084, three days, read-out: MIC MS
[13] = ATCC700084, M. smegmatis ATCC 700084, read-out: log(1/MIC [M]) MS (converted)
[14] = read-out: log(1/MIC [M]) VRE3 (converted)
[15] = 24 h, MRSA SA 3202, read-out: log(1/MIC [M]) MRSA3 (converted)
[16] = MRSA SA 3202, 24 h, read-out: MIC MRSA3
[17] = 24 h, MRSA SA 630, read-out: log(1/MIC [M]) MRSA2 (converted)
[18] = MRSA SA 630, 24 h, read-out: MIC MRSA2
[19] = read-out: log(1/MIC [M]) VRE1 (converted)
[20] = ATCC29213, 24 h, S. aureus ATCC 29213, read-out: log(1/MIC [M]) SA (converted)
[21] = ATCC29213, S. aureus ATCC 29213, 24 h, read-out: MIC SA
[22] = 24 h, MRSA 63718, read-out: log(1/MIC [M]) MRSA1 (converted)
[23] = MRSA 63718, 24 h, read-out: MIC MRSA1
[24] = 24 h, read-out: IC50 MDM 10% FSB
[25] = read-out: log(1/IC50 [M]) MDM 10% FSB (converted)
[26] = 24 h, VRE 368, read-out: log(1/MIC [M]) VRE2 (converted)
[27] = VRE 368, 24 h, read-out: MIC VRE2
[28] = ATCC29212, 24 h, E. faecalis reference strain, read-out: log(1/MIC [M]) EF (converted)
[29] = ATCC29212, E. faecalis reference strain, 24 h, read-out: MIC EF

Compound: O=C(/C=C/c1ccc(Cl)c(Cl)c1)Nc1cccc(C(F)(F)F)c1 [2i, (2E)-3-(3,4-Dichlorophenyl)-N-[3-(trifluoromethyl)phenyl]prop-2-enamide]
- MIC [1, 12]: 5.55e-06 M (≈ 2 µg/mL)
- MIC [1, 13]: 5.5e-06 M (≈ 1.98 µg/mL)
- MIC ([2]; read-out: MIC VRE3): 4.44e-05 M (≈ 16 µg/mL)
- MIC [2, 14]: 4.47e-05 M (≈ 16.1 µg/mL)
- MIC [3, 15]: 1.38e-06 M (≈ 0.497 µg/mL)
- MIC [3, 16]: 1.39e-06 M (≈ 0.501 µg/mL)
- MIC [4, 17]: 1.38e-06 M (≈ 0.497 µg/mL)
- MIC [4, 18]: 1.39e-06 M (≈ 0.501 µg/mL)
- MIC ([5]; read-out: MIC VRE1): 2.22e-05 M (≈ 8 µg/mL)
- MIC [5, 19]: 2.24e-05 M (≈ 8.06 µg/mL)
- MIC [6, 20]: 1.38e-06 M (≈ 0.497 µg/mL)
- MIC [6, 21]: 1.39e-06 M (≈ 0.501 µg/mL)
- MIC [7, 22]: 6.92e-07 M (≈ 0.249 µg/mL)
- MIC [7, 23]: 6.94e-07 M (≈ 0.25 µg/mL)
- IC50 [8, 24]: > 1e-05 M
- IC50 [8, 25]: > 1e-05 M
- log k [9]: 0.9873
- log D6.5 [9]: 0.9915
- log D7.4 [9]: 0.9505
- MIC [10, 26]: 2.24e-05 M (≈ 8.06 µg/mL)
- MIC [10, 27]: 2.22e-05 M (≈ 8 µg/mL)
- MIC [11, 28]: 2.24e-05 M (≈ 8.06 µg/mL)
- MIC [11, 29]: 2.22e-05 M (≈ 8 µg/mL)

Compound: O=C(/C=C/c1ccc(Cl)c(Cl)c1)Nc1ccc(C(F)(F)F)cc1 [2j, (2E)-3-(3,4-Dichlorophenyl)-N-[4-(trifluoromethyl)phenyl]prop-2-enamide]
- MIC [1, 12]: 2.78e-06 M (≈ 1 µg/mL)
- MIC [1, 13]: 2.75e-06 M (≈ 0.992 µg/mL)
- MIC ([2]; read-out: MIC VRE3): 1.11e-05 M (≈ 4 µg/mL)
- MIC [2, 14]: 1.12e-05 M (≈ 4.04 µg/mL)
- MIC [3, 15]: 6.92e-07 M (≈ 0.249 µg/mL)
- MIC [3, 16]: 6.94e-07 M (≈ 0.25 µg/mL)
- MIC [4, 17]: 3.72e-07 M (≈ 0.134 µg/mL)
- MIC [4, 18]: 3.71e-07 M (≈ 0.134 µg/mL)
- MIC ([5]; read-out: MIC VRE1): 1.11e-05 M (≈ 4 µg/mL)
- MIC [5, 19]: 1.12e-05 M (≈ 4.04 µg/mL)
- activity against S. aureus and MRSA isolates (in words) [6]: submicromolar
- MIC [6, 20]: 6.92e-07 M (≈ 0.249 µg/mL)
- MIC [6, 21]: 6.94e-07 M (≈ 0.25 µg/mL)
- MIC [7, 22]: 3.72e-07 M (≈ 0.134 µg/mL)
- MIC [7, 23]: 3.71e-07 M (≈ 0.134 µg/mL)
- IC50 [8, 24]: > 1e-05 M
- IC50 [8, 25]: > 1e-05 M
- log k [9]: 1.0364
- log D6.5 [9]: 1.0370
- log D7.4 [9]: 0.9945
- MIC [10, 26]: 1.12e-05 M (≈ 4.04 µg/mL)
- MIC [10, 27]: 1.11e-05 M (≈ 4 µg/mL)
- MIC [11, 28]: 1.12e-05 M (≈ 4.04 µg/mL)
- MIC [11, 29]: 1.11e-05 M (≈ 4 µg/mL)

Compound: O=C(/C=C/c1ccc(Cl)c(Cl)c1)Nc1ccc(OC(F)(F)F)cc1 [2k, (2E)-3-(3,4-Dichlorophenyl)-N-[4-(trifluoromethoxy)phenyl]prop-2-enamide]
- MIC [1, 12]: 1.06e-05 M (≈ 3.99 µg/mL)
- MIC [1, 13]: 2.34e-06 M (≈ 0.882 µg/mL)
- MIC ([2]; read-out: MIC VRE3): 2.13e-05 M (≈ 8.01 µg/mL)
- MIC [2, 14]: 2.14e-05 M (≈ 8.04 µg/mL)
- MIC [3, 15]: 1.32e-06 M (≈ 0.496 µg/mL)
- MIC [3, 16]: 1.33e-06 M (≈ 0.5 µg/mL)
- MIC [4, 17]: 1.32e-06 M (≈ 0.496 µg/mL)
- MIC [4, 18]: 1.33e-06 M (≈ 0.5 µg/mL)
- MIC ([5]; read-out: MIC VRE1): 2.13e-05 M (≈ 8.01 µg/mL)
- MIC [5, 19]: 2.14e-05 M (≈ 8.04 µg/mL)
- MIC [6, 20]: 2.95e-07 M (≈ 0.111 µg/mL)
- MIC [6, 21]: 1.33e-06 M (≈ 0.5 µg/mL)
- MIC [7, 22]: 1.32e-06 M (≈ 0.496 µg/mL)
- MIC [7, 23]: 1.33e-06 M (≈ 0.5 µg/mL)
- IC50 [8, 24]: > 1e-05 M
- IC50 [8, 25]: > 1e-05 M
- log k [9]: 1.0513
- log D6.5 [9]: 1.0544
- log D7.4 [9]: 1.0053
- MIC [10, 26]: 4.27e-05 M (≈ 16 µg/mL)
- MIC [10, 27]: 4.25e-05 M (≈ 16 µg/mL)
- MIC [11, 28]: 4.68e-06 M (≈ 1.76 µg/mL)
- MIC [11, 29]: 1.06e-05 M (≈ 3.99 µg/mL)

Compound: O=C(/C=C/c1ccc(Cl)c(Cl)c1)Nc1cc(C(F)(F)F)cc(C(F)(F)F)c1 [2q, (2E)-N-[3,5-bis(Trifluoromethyl)phenyl]-3-(3,4-dichlorophenyl)prop-2-enamide]
- MIC [1, 12]: 2.34e-06 M (≈ 1 µg/mL)
- MIC [1, 13]: 1.07e-05 M (≈ 4.59 µg/mL)
- MIC ([2]; read-out: MIC VRE3): 4.67e-06 M (≈ 2 µg/mL)
- MIC [2, 14]: 4.68e-06 M (≈ 2 µg/mL)
- MIC [3, 15]: 2.95e-07 M (≈ 0.126 µg/mL)
- MIC [3, 16]: 2.92e-07 M (≈ 0.125 µg/mL)
- MIC [4, 17]: 1.35e-07 M (≈ 0.0578 µg/mL)
- MIC [4, 18]: 1.36e-07 M (≈ 0.0582 µg/mL)
- MIC ([5]; read-out: MIC VRE1): 9.34e-06 M (≈ 4 µg/mL)
- MIC [5, 19]: 9.33e-06 M (≈ 4 µg/mL)
- activity against S. aureus and MRSA isolates (in words) [6]: submicromolar
- MIC [6, 20]: 1.32e-06 M (≈ 0.564 µg/mL)
- MIC [6, 21]: 2.92e-07 M (≈ 0.125 µg/mL)
- MIC [7, 22]: 1.35e-07 M (≈ 0.0578 µg/mL)
- MIC [7, 23]: 1.36e-07 M (≈ 0.0582 µg/mL)
- IC50 [8, 24]: 5e-06 to 1e-05 M
- log k [9]: 1.4731
- log D6.5 [9]: 1.4967
- log D7.4 [9]: 1.4717
- MIC [10, 26]: 1.86e-05 M (≈ 7.97 µg/mL)
- MIC [10, 27]: 1.87e-05 M (≈ 8 µg/mL)
- MIC [11, 28]: 1.07e-05 M (≈ 4.59 µg/mL)
- MIC [11, 29]: 4.67e-06 M (≈ 2 µg/mL)
